Measurements published in US10875832B2, “Substituted pyrimidines for treating bacterial infections” (FORGE THERAPEUTICS, INC., priority 2015, dated 2020).
In brackets after ≈: the same amount, converted by molar mass.

Tests used:
E. coli ATCC 25922 = experiment: MIC by broth microdilution, E. coli ATCC 25922, no FBS; assay type: cell-based; conditions: Escherichia coli, ATCC25922, 35° C., 18-24 h
Experimental: (§1) Minimal inhibitory concentrations (MIC) were determined by the broth microdilution method in accordance with the Clinical and Laboratory Standards Institute (CLSI) guidelines. In brief, organism suspensions were adjusted to a 0.5 McFarland standard to yield a final inoculum between 3×10^5 and 7×10^5 colony-forming units (CFU)/mL. Drug dilutions and inocula were made in sterile, cation adjusted Mueller-Hinton Broth (Beckton Dickinson). An inoculum volume of 100 μL was added to wells containing 100 μL of broth with 2-fold serial dilutions of drug. All inoculated microdilution trays were incubated in ambient air at 35° C. for 18-24 h. […] Performance of the assay was monitored by the use of laboratory quality-control strains and levofloxacin, a compound with a defined MIC spectrum, in accordance with CLSI guidelines.

E. coli BW25113 = experiment: MIC by broth microdilution, E. coli BW25113, no FBS; assay type: cell-based; conditions: Escherichia coli, 35° C., 18-24 h
Experimental: as §1

E. coli imp mutant = experiment: MIC by broth microdilution, E. coli imp mutant; assay type: cell-based; conditions: Escherichia coli, read-out: MIC E. coli imp mutant
Experimental: as §1

[1] = system: E. coli delta to IC mutant; experiment: MIC by broth microdilution, E. coli delta tolC mutant; assay type: cell-based; conditions: Escherichia coli, read-out: MIC E. coli delta to IC mutant
Experimental: as §1

S. aureus ATCC 29213 = experiment: MIC by broth microdilution, S. aureus ATCC 29213; assay type: cell-based; conditions: Staphylococcus aureus, ATCC29213; 35° C., 18-24 h
Experimental: as §1

P. aeruginosa 209 = experiment: MIC by broth microdilution, P. aeruginosa 209; assay type: cell-based; conditions: Pseudomonas aeruginosa, 35° C., 18-24 h
Experimental: as §1

[2] = system: P. aeruginosa 210 delta mexAB-OprM; experiment: MIC by broth microdilution, P. aeruginosa 210 delta mexAB-OprM; assay type: cell-based; conditions: Pseudomonas aeruginosa, read-out: MIC P. aeruginosa 210 delta mexAB-OprM
Experimental: as §1

[3] = target: Klebsiella pneumoniae LpxC (Klebsiella pneumoniae subsp. pneumoniae (strain ATCC 700721 / MGH 78578), UniProt A6T4N9); experiment: Inhibition Assay against Klebsiella pneumoniae LpxC (LC-MS/MS); assay type: biochemical; conditions: 0.2 nM Kpn LpxC, 22° C., 60 minutes
Experimental: LpxC inhibition assays were performed using liquid chromatography with tandem mass spectrometry. Assays were performed, in duplicate, in opaque, 96-well microplates in a total assay volume of 50 μL. The incubation mixture contained: LpxC (0.2 nM Kpn), 0.8 μM UDP-3-O—[(R)-3-hydroxymyristoyl]-N-acetyl-glucosamine, 40 mM Bis-Tris/HCl buffer (pH 5.9), 5 mM sodium phosphate buffer (NaH2PO4/Na2HPO4, pH 7.0), 1 mM DTT, 0.1% (w/v) fatty-acid free BSA, 10% DMSO (v/v, with or without compound). The reactions were incubated at 22° C. for 60 minutes (with mild shaking), then terminated by the addition of 25 μL 0.25 N HCl. Samples were analyzed using a LC-MS system to measure native LpxC substrate and reaction product. IC50 analysis was done using GeneData Screener and a four parameter variable slope normalized to controls. Test compounds were prepared as 8-point dose-response curves (factor dilution 2) in triplicate, starting at 1 μM final concentration. Each assay plate included 6 wells used for the Z′ factor calculation, 3 as a positive control for the assay and 3 as a negative control. The robustness was calculated as the median Z′ factor for 5 plates.

SMILES	MIC (E. coli ATCC 25922) [µg/mL]	MIC (E. coli BW25113) [µg/mL]	MIC (E. coli imp mutant) [µg/mL]	MIC [1] [µg/mL]	MIC (S. aureus ATCC 29213) [µg/mL]	MIC (P. aeruginosa 209) [µg/mL]	MIC [2] [µg/mL]	IC50 [3] [nM]
O=C(c1ccc(C#CC#Cc2ccc(NCc3nc[nH]c(=O)c3O)cc2)cc1)N1CCOCC1 [Compound 97]	1 to 8 (≈ 2.2 to 17.6 µM)	< 1	< 1	< 1	> 32	> 32	> 32	10 to 100
O=c1[nH]cnc(CNc2ccc(C#Cc3ccc(CN4CCOCC4)cc3)cc2)c1O [Compound 98]	1 to 8 (≈ 2.4 to 19.2 µM)	< 1	1 to 8 (≈ 2.4 to 19.2 µM)	< 1	> 32	> 32	> 32	10 to 100
O=C(c1ccc(C#CC#Cc2ccc(NCc3nc[nH]c(=O)c3O)cc2)cc1)N1CCC[C@H]1CO [Compound 99]	> 32	1 to 8 (≈ 2.13 to 17.1 µM)	< 1	< 1	> 32	> 32	> 32	
CN(C)C1CCN(C(=O)c2ccc(C#CC#Cc3ccc(NCc4nc[nH]c(=O)c4O)cc3)cc2)C1 (stereo not drawn) [Compound 100]	1 to 8 (≈ 2.08 to 16.6 µM)	1 to 8 (≈ 2.08 to 16.6 µM)	< 1	< 1	> 32	> 32	> 32	
O=C(O)c1ccc(C#Cc2ccc(NCc3nc[nH]c(=O)c3O)cc2)cc1 [Compound 101]	> 32	> 32	> 32	1 to 8 (≈ 2.77 to 22.1 µM)	> 32	> 32	> 32	
O=c1[nH]cnc(CS(=O)(=O)c2ccc(C#Cc3ccc(CN4CCOCC4)cc3)cc2)c1O [Compound 102]	8 to 32 (≈ 17.2 to 68.7 µM)	8 to 32 (≈ 17.2 to 68.7 µM)	8 to 32 (≈ 17.2 to 68.7 µM)	8 to 32 (≈ 17.2 to 68.7 µM)	> 32	> 32	8 to 32 (≈ 17.2 to 68.7 µM)	
O=c1[nH]cnc(CNc2ccc(C#Cc3ccc(-c4nnn[nH]4)cc3)cc2)c1O [Compound 103]	> 32	> 32	> 32	1 to 8 (≈ 2.59 to 20.8 µM)	> 32	> 32	> 32	
